Patent publication US20100267561A1, “HERBICIDAL PYRIDAZINONE DERIVATIVES” (priority 2007, published 2010)

Key:
Assay type in all cases: in vivo
[1] = system: chickweed (Stellaria media); test: Test B postemergence plant response; settings: for Plant response rating, Chickweed: Postemergence
Method in brief: (§1)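 Visual injury ratings on a 0–100 scale, where 100 means complete control, were made 13 to 15 days after postemergence treatment of greenhouse-grown plants at the 1- to 4-leaf stage.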

[2] = system: windgrass (Apera spica-venti); test: Test B postemergence plant response; settings: for Plant response rating, Windgrass: Postemergence
Method in brief: as §1

[3] = system: canarygrass (Phalaris minor); test: Test B postemergence plant response; settings: for Plant response rating, Canarygrass: Postemergence
Method in brief: as §1

[4] = system: winter barley (Hordeum vulgare); test: Test B postemergence plant response; settings: for Plant response rating, Barley: Postemergence, scale 0 to 100, 0 no effect, 100 complete control
Method in brief: as §1

[5] = system: ducksalad (Heteranthera limosa); test: Test B flooded paddy test plant response
Method in brief: (§2)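 Rice, umbrella sedge, ducksalad and barnyardgrass at 2-leaf stage; pots flooded to 3 cm, compounds applied into paddy water, depth held throughout. Greenhouse 13 to 15 days, then visual rating vs untreated controls on 0–100 scale (0 no effect, 100 complete control); dash means no test result.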

rice (Oryza sativa) = test: Test B flooded paddy test plant response
Method in brief: as §2

[6] = system: umbrella sedge (Cyperus difformis); test: Test B flooded paddy test plant response
Method in brief: as §2

[7] = system: barnyardgrass (Echinochloa crus-galli); test: Test B flooded paddy test plant response
Method in brief: as §2

[8] = system: large crabgrass (Digitaria sanguinalis); test: Test A pre-/postemergence plant response
Method in brief: (§3)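 Greenhouse pot test: loam–sand soil; pre- and postemergence sprays applied same day; post plants 2–10 cm, 1–2 leaves. Readout ~10 d, visual % injury vs untreated (0 = none, 100 = complete control).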

[9] = system: pigweed (Amaranthus retroflexus); test: Test A pre-/postemergence plant response
Method in brief: as §3

[10] = system: giant foxtail (Setaria faberi); test: Test A pre-/postemergence plant response
Method in brief: as §3

[11] = system: morningglory (Ipomoea coccinea); test: Test A pre-/postemergence plant response
Method in brief: as §3

[12] = system: velvetleaf (Abutilon theophrasti); test: Test A pre-/postemergence plant response
Method in brief: as §3

corn (Zea mays) = test: Test A pre-/postemergence plant response
Method in brief: as §3

[13] = system: barnyardgrass (Echinochloa crus-galli); test: Test A pre-/postemergence plant response
Method in brief: as §3

[14] = 8 g ai/ha, postemergence, 0-100 scale
[15] = 31 g ai/ha, scale 0 to 100, 0 no effect, 100 complete control
[16] = 62 g ai/ha, scale 0 to 100, 0 no effect, 100 complete control
[17] = Flood (flooded paddy test), 62 g ai/ha, scale 0 to 100, 0 no effect, 100 complete control
[18] = Flood (flooded paddy test), 125 g ai/ha, scale 0 to 100, 0 no effect, 100 complete control
[19] = Flood (flooded paddy test), 250 g ai/ha, scale 0 to 100, 0 no effect, 100 complete control
[20] = Flood, 31 g ai/ha, scale 0 to 100
[21] = Postemergence, 125 g ai/ha, 0 to 100 scale, 0 no effect, 100 complete control
[22] = Postemergence, 500 g ai/ha, 0 to 100 scale, 0 no effect, 100 complete control
[23] = Preemergence, 125 g ai/ha, 0 to 100 scale (0 no effect, 100 complete control)
[24] = Preemergence, 500 g ai/ha, 0 to 100 scale (0 no effect, 100 complete control)

## Cn1ncc(O)c(-c2nn(-c3ccc(Cl)cc3)cc2Cl)c1=O [Compound 28]
[1]; [14]
  Chickweed plant response rating: 0
[1]; 16 g ai/ha, scale 0 to 100
  Plant response rating, Chickweed: 0
[1]; [15]
  Plant response rating, Chickweed: 0
[1]; [16]
  Plant response rating, Chickweed: 0
[2]; [14]
  Windgrass plant response rating: 0
[2]; 16 g ai/ha, scale 0 to 100
  Plant response rating, Windgrass: 35
[2]; [16]
  Plant response rating, Windgrass: 85
[3]; [14]
  Canarygrass plant response rating: 0
[3]; 16 g ai/ha, scale 0 to 100
  Plant response rating, Canarygrass: 0
[3]; [15]
  Plant response rating, Canarygrass: 50
[4]; [14]
  Barley plant response rating: 0
[4]; 16 g ai/ha
  Plant response rating, Barley: 0
[4]; 31 g ai/ha
  Plant response rating, Barley: 50
[5]; [17]
  Plant response rating, Ducksalad: 0
[5]; [18]
  Plant response rating, Ducksalad: 0
[5]; [19]
  Plant response rating, Ducksalad: 0
[5]; [20]
  Plant response rating, Ducksalad: 0
Rice (Oryza sativa); [17]
  Plant response rating, Rice: 0
Rice (Oryza sativa); [18]
  Plant response rating, Rice: 0
Rice (Oryza sativa); [19]
  Plant response rating, Rice: 60
Rice (Oryza sativa); [20]
  Plant response rating, Rice: 0
[6]; [17]
  Plant response rating, Sedge, Umbrella: 0
[6]; [18]
  Plant response rating, Sedge, Umbrella: 0
[6]; [19]
  Plant response rating, Sedge, Umbrella: 0
[6]; [20]
  Plant response rating, Sedge, Umbrella: 0
[7]; [17]
  Plant response rating, Barnyardgrass: 0
[7]; [18]
  Plant response rating, Barnyardgrass: 0
[7]; [19]
  Plant response rating, Barnyardgrass: 30
[7]; [20]
  Plant response rating, Barnyardgrass: 0
[8]; [21]
  Plant response rating, Crabgrass, Large: 80
[8]; [22]
  Plant response rating, Crabgrass, Large: 90
[8]; [23]
  Plant response rating, Crabgrass, Large: 90
[8]; [24]
  Plant response rating, Crabgrass, Large: 100
[9]; [21]
  Plant response rating, Pigweed: 0
[9]; [22]
  Plant response rating, Pigweed: 0
[9]; [23]
  Plant response rating, Pigweed: 0
[9]; [24]
  Plant response rating, Pigweed: 0
[10]; [21]
  Plant response rating, Foxtail, Giant: 90
[10]; [22]
  Plant response rating, Foxtail, Giant: 90
[10]; [23]
  Plant response rating, Foxtail, Giant: 100
[10]; [24]
  Plant response rating, Foxtail, Giant: 100
[11]; [21]
  Plant response rating, Morningglory: 0
[11]; [22]
  Plant response rating, Morningglory: 30
[11]; [24]
  Plant response rating, Morningglory: 0
[12]; [21]
  Plant response rating, Velvetleaf: 0
[12]; [22]
  Plant response rating, Velvetleaf: 0
[12]; [23]
  Plant response rating, Velvetleaf: 0
[12]; [24]
  Plant response rating, Velvetleaf: 20
Corn (Zea mays); [21]
  Plant response rating, Corn: 40
Corn (Zea mays); [22]
  Plant response rating, Corn: 90
Corn (Zea mays); [23]
  Plant response rating, Corn: 80
Corn (Zea mays); [24]
  Plant response rating, Corn: 90
[13]; [21]
  Plant response rating, Barnyardgrass: 60
[13]; [22]
  Plant response rating, Barnyardgrass: 100
[13]; [23]
  Plant response rating, Barnyardgrass: 100
[13]; [24]
  Plant response rating, Barnyardgrass: 100
